Test results published in patent US20220184143A1, “COMPOSITIONS AND METHODS OF MODULATING CASOTRANSMITTER SIGNALING” (CASE WESTERN RESERVE UNIVERSITY, priority 2019, published 2022).

How the values were obtained:
AGO2 [1] = molecular target: T1, AGO2 (Homo sapiens, UniProt Q9UKV8); assay: AGO2 immunoblot following SNO-RAC in HEK293 cells; type: cell-based; set-up: endogenous in cells; host or cells: HEK293
Protocol: S-nitrosylated proteins were isolated by SNO-RAC as described. In brief, cells were lysed in HEN buffer additionally containing 1% NP-40, 50 mM NaCl and protease inhibitors. Free cysteines were blocked with S-Methyl methanethiosulfonate (MMTS). After acetone precipitation and multiple 70% acetone washes, proteins were re-suspended in HEN buffer containing 1% SDS. 50 μl thiopropyl Sepharose 6B resin (GE, Chicago, Ill.) and 50 mM sodium ascorbate were added, followed by rotation in the dark for 4 hr at room temperature. Following multiple washes, the bound proteins were eluted in 2×SDS-PAGE loading buffer containing 10% β-mercaptoethanol. Following separation on reducing pre-cast 4-20% SDS-PAGE gels (Bio-Rad Laboratories, Hercules, Calif.), individual SNO-proteins were detected by Western blotting using specific antibodies (anti-FLAG, anti-myc, anti-ALG-1, anti-AGO2, anti-GW182) or the gel was stained using the SilverQuest™ silver staining kit (ThermoFisher Scientific, Waltham, Mass.) or Imperial™ Protein Stain (ThermoFisher Scientific, Waltham, Mass.), per manufacturer instructions.
Transfected HEK293 or HeLa cells were cultured at 37° C. in 15 cm tissue culture-treated dishes. They were then treated with either 500 μM DETA-NOate (t1/2=20 hr) for 16 hours, 100 μM CysNO for 10 min, or 200 μM dipropylenetriamine (DPTA)-NONOate (Cayman Chemicals, Ann Arbor, Mich.) for 6 hours. […]

AGO2 and GW182 = molecular target: T2, AGO2 and GW182 (Homo sapiens, UniProt Q9UKV8); assay: Co-immunoprecipitation of AGO2 and GW182 in HEK293 cells; type: cell-based
T2 construct: host or cells: HEK293
Protocol: Transfected HEK293 or HeLa cells were cultured at 37° C. in 15 cm tissue culture-treated dishes. They were then treated with either 500 μM DETA-NOate (t1/2=20 hr) for 16 hours, 100 μM CysNO for 10 min, or 200 μM dipropylenetriamine (DPTA)-NONOate (Cayman Chemicals, Ann Arbor, Mich.) for 6 hours. Cells were washed once with DPBS without calcium chloride and magnesium chloride from Gibco® (Life Technologies, Carlsbad, Calif.) and incubated on ice for 10 minutes in IP lysis/wash buffer (ThermoFisher Scientific, Waltham, Mass.) with added EDTA-free protease inhibitor tablet (Roche, Basel, Switzerland). This was followed by centrifugation at 14,000 g for 10 minutes to collect the supernatant. The lysates were then used for immunoprecipitation experiments.
For HEK293 cells, all steps were performed either on ice or in the cold room at 4° C. Immunoprecipitations (IP) were performed with 3 mg of total lysate that was pre-cleared using a Pierce™ control agarose resin (ThermoFisher Scientific, Waltham, Mass.), after which 10 μg of IP antibody was added, and samples were incubated overnight at 4° C. with rotation. The next day, 30 μl of protein A/G Sepharose (ThermoFisher Scientific, Waltham, Mass.) was added and the samples were incubated for 2 hours at 4° C. […] The eluates were neutralized by adding 3 μl of 1M Tris-HCl, pH 8.0 and analyzed by western blotting. […]

AGO2 [2] = molecular target: T1, AGO2; assay: let-7 luciferase reporter miRNA activity assay in HeLa cells; type: cell-based; set-up: expressed in transfected cells; host or cells: HeLa; conditions: WT AGO2, Hmga2 3'UTR reporter
Protocol: (§1) 0.5×10^5 cells/well Hela cells were plated in wells of 24 well dishes. They were transiently transfected the next day with 2 μg of either WT-AGO2 or C691S-AGO2, plus 100 ng of either Hmga2 3′UTR-WT luciferase (Luc-wt) or Hmga2 3′UTR-mutant7 luciferase (Luc-m7) control. 100 ng pMax-GFP was also co-transfected to normalize for transfection efficiency. Transfections were carried out using Lipofectamine® 2000 transfection reagent (ThermoFisher Scientific, Waltham, Mass.). Six hours after transfection, the NO donor DETA-NONOate (Cayman Chemicals, Ann Arbor, Mich.) was added at 500 μM. The cells were harvested 24 hours post-transfection, using 1× Passive Lysis Buffer (Promega, Madison, Wis.). Renilla luciferase activity was measuredusing the Renilla Luciferase Assay System (Promega, Madison, Wis.) and a Veritas™ microplate luminometer (Turner BioSystems, Sunnyvale, Calif.) and normalized to GFP readings measured using a BMG FluoStar Galaxy microplate reader. Hmga2 3′UTR WT luciferase (Luc-wt) and Hmga2 3′UTR m7 luciferase (Luc-m7) were gifts from David Bartel (Addgene plasmid #14785 and #14788, respectively)).

AGO2 [3] = molecular target: T3, AGO2 (Homo sapiens, UniProt Q9UKV8, C691S); assay: as above; type: cell-based; conditions: C691S AGO2, Hmga2 3'UTR reporter
T3 construct: expressed in transfected cells; host or cells: HeLa
Protocol: as §1

[4] = cited from earlier work

T1 sequence (Q9UKV8 whole entry): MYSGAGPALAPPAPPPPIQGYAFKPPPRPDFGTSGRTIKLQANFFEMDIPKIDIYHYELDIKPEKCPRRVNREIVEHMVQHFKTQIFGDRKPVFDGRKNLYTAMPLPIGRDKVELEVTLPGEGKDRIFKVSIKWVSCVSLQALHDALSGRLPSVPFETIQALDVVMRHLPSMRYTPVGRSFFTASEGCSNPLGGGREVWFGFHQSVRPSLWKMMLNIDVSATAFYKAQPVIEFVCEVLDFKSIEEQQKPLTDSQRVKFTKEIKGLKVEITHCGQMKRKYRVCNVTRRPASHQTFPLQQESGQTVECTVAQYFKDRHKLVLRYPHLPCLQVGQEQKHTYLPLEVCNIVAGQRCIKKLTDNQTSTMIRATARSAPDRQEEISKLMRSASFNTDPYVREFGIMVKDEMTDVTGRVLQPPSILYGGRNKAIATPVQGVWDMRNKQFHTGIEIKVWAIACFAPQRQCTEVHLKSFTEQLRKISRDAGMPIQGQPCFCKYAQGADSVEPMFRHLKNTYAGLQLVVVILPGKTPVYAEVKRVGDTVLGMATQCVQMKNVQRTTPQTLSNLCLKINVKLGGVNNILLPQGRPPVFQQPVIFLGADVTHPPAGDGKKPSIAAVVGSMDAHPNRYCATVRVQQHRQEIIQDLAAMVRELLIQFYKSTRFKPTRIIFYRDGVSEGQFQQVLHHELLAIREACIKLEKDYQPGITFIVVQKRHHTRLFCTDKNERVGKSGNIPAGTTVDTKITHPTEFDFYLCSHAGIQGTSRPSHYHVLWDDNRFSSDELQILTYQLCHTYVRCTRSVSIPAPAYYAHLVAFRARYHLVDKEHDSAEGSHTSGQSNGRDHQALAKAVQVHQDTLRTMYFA
T2 sequence (Q9UKV8 whole entry): as above
T3 sequence (Q9UKV8 whole entry C691S): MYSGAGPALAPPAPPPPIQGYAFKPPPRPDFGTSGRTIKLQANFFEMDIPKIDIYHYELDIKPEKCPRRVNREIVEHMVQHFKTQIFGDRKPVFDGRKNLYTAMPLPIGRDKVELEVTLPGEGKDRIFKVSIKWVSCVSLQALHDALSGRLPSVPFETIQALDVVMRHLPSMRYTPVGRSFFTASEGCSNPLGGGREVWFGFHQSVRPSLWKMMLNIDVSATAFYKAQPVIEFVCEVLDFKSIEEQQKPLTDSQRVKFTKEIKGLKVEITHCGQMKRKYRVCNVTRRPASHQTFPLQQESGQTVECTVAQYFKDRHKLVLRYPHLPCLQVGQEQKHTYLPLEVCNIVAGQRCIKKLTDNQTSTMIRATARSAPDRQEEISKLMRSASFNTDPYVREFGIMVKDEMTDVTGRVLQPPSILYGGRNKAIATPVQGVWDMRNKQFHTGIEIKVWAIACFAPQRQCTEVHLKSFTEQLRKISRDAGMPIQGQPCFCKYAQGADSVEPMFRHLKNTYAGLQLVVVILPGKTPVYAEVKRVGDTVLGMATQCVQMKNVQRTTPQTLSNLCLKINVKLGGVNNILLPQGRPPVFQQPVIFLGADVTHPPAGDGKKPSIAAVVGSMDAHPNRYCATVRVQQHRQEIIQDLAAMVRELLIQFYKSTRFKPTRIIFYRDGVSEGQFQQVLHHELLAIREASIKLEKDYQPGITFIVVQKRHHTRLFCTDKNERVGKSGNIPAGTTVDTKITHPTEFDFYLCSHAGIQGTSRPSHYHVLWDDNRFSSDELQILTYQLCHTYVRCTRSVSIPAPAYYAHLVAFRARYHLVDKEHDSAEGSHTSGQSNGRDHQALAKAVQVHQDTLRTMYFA

| S-nitrosylation of WT AGO2 (AGO2 [1]; HEK293 cells transfected with WT AGO2, 100 μM) | association of WT AGO2 with GW182 (AGO2 and GW182; co-immunoprecipitation, transfected HEK293 cells) | interaction between endogenous AGO2 and GW182 (AGO2 and GW182; cultured mammalian cells) | WT AGO2 repression of luciferase target (AGO2 [2]) | mutant C691S AGO2 activity (AGO2 [3]) | S-nitrosylation of AGO2 by endogenous eNOS (AGO2 [1]; HEK293 cells, 500 μM) | SMILES | t1/2 [4] |
| --- | --- | --- | --- | --- | --- | --- | --- |
| strongly S-nitrosylated |  |  |  |  |  | N[C@@H](CSN=O)C(=O)O [CysNO, S-nitrosocysteine] |  |
|  | strongly inhibited | inhibited | repressed its target poorly | little effect | enhanced | NCCN(CCN)/[N+]([O-])=N/O [DETA-NO, DETA-NONOate] | 20 h |
